In patent US9775353B2, “Pesticidally active heterocyclic derivatives with sulphur containing substituents” (Syngenta Participations AG, priority 2014, dated 2017):

Assays:
[1] = tested on: Bemisia tabaci (cotton white fly); assay: Example B5: Activity against Bemisia tabaci (adulticide contact activity, preventative); format: in vivo; conditions: foliar, 168 h, cotton leaf discs sprayed, adult white flies, mortality 7 DAT
Experimental: Example B5: Activity Against Bemisia tabaci (Cotton White Fly) (Adulticide Contact Activity, Preventative), Adult Cotton leaf discs were placed on agar in a 24-well microtiter plate and sprayed with test solutions. After drying, the leaf discs were infested with adult white flies. After an incubation period of 7 DAT, samples were checked for mortality and special effects (e.g. phytotoxicity).

[2] = tested on: Tetranychus urticae (two-spotted spider mite); assay: Example B12: Activity against Tetranychus urticae; format: in vivo; conditions: foliar, 192 h, application rate 400 ppm, bean leaf discs sprayed, mixed population (mobile stages), 8 days after infestation
Experimental: Example B12: Activity Against Tetranychus urticae (Two-Spotted Spider Mite)
Bean leaf discs on agar in 24-well microtiter plates were sprayed with aqueous test solutions prepared from 10,000 ppm DMSO stock solutions. After drying the leaf discs were infested with a mite population of mixed ages. The samples were assessed for mortality on mixed population (mobile stages) 8 days after infestation.

[3] = tested on: Thrips tabaci (onion thrips); assay: Example B11: Activity against Thrips tabaci; format: in vivo; conditions: foliar, 144 h, application rate 400 ppm, sunflower leaf discs sprayed, mixed ages, 6 days after infestation
Experimental: Example B11: Activity Against Thrips tabaci (Onion Thrips)
Sunflower leaf discs were placed on agar in 24-well microtiter plates and sprayed with aqueous test solutions prepared from 10,000 ppm DMSO stock solutions. After drying the leaf discs were infested with a thrips population of mixed ages. The samples were assessed for mortality 6 days after infestation.

[4] = tested on: Spodoptera littoralis (Egyptian cotton leaf worm); assay: Example B1: Activity against Spodoptera littoralis (larvicide, feeding/residual contact, preventive); format: in vivo; conditions: foliar, 72 h, cotton leaf discs sprayed, L1 larvae, mortality, repellent effect, feeding behaviour, growth regulation 3 days after treatment
Excerpt: Example B1: Activity Against Spodoptera littoralis (Egyptian Cotton Leaf Worm) (Larvicide, Feeding/Residual Contact Activity, Preventive) Cotton leaf discs were placed on agar in a 24-well microtiter plate and sprayed with test solutions. After drying, the leaf discs were infested with 5 L1 larvae. The samples were checked for mortality, repellent effect, feeding behaviour, and growth regulation 3 days after treatment (DAT).

[5] = tested on: Plutella xylostella (diamond back moth); assay: Example B2: Activity against Plutella xylostella (larvicide, feeding/residual contact, preventive); format: in vivo; conditions: 120 h, artificial diet, L2 larvae, larval mortality, antifeedant, growth regulation after 5 days
Experimental: Example B2: Activity Against Plutella xylostella (Diamond Back Moth) (Larvicide, Feeding/Residual Contact Activity, Preventive) 24-well microtiter plate (MTP) with artificial diet was treated with test solutions by pipetting. After drying, the MTPs were infested with L2 larvae (10-15 per well). After an incubation period of 5 days, samples were checked for larval mortality, antifeedant and growth regulation.

[6] = tested on: Diabrotica balteata (corn root worm); assay: Example B3: Activity against Diabrotica balteata (larvae L2 on maize sprouts, feeding/contact, preventative); format: in vivo; conditions: 120 h, maize sprouts sprayed, larval mortality and growth regulation after 5 days
Experimental: Example B3: Activity Against Diabrotica balteata (Corn Root Worm) (Larvae L2 on Maize Sprouts, Feeding/Contact, Preventative) Maize sprouts, placed on an agar layer in 24 well micro titer plates were treated with test solutions by spraying. After drying, the MTPs were infested with L2 larvae (6-10 per well). After an incubation period of 5 days, samples were checked for larval mortality and growth regulation.

[7] = tested on: Spodoptera littoralis (Egyptian cotton leaf worm); assay: Example B7: Activity against Spodoptera littoralis (systemic activity); format: in vivo; conditions: 120 h, systemic via lettuce roots in agar, mortality, repellent effect, feeding behavior, growth regulation 5 days after infestation
Excerpt: Example B7: Activity Against Spodoptera littoralis (Egyptian Cotton Leaf Worm) (Systemic Activity) Test compounds were applied by pipette into 24 well plates and mixed with agar. Lettuce seeds were placed on the agar and the multi well plate is closed by another plate which contains also agar. After 7 days the roots have absorbed the compound and the lettuce has grown into the lid plate. The lettuce leaves were now cut off into the lid plate. Spodoptera eggs were pipetted through a plastic stencil on a humid gel blotting paper and the plate closed with it. The samples are checked for mortality, repellent effect, feeding behavior, and growth regulation 5 days after infestation.

[8] = tested on: Myzus persicae (green peach aphid); assay: Example B8: Activity against Myzus persicae (feeding/residual contact, preventive, mixed population); format: in vivo; conditions: foliar, 144 h, sunflower leaf discs sprayed, mixed ages, mortality 6 DAT
Experimental: Example B8: Activity Against Myzus persicae (Green Peach Aphid) (Feeding/Residual Contact Activity, Preventive), Mixed Population Sunflower leaf discs were placed on agar in a 24-well microtiter plate and sprayed with test solutions. After drying, the leaf discs were infested with an aphid population of mixed ages. After an incubation period of 6 DAT, samples were checked for mortality and special effects (e.g. phytotoxicity).

[9] = tested on: Euschistus heros (neotropical brown stink bug); assay: Example B10: Activity against Euschistus heros; format: in vivo; conditions: 120 h, soybean leaf sprayed, N-2 nymphs, mortality 5 days after infestation
Experimental: Example B10: Activity Against Euschistus heros (Neotropical Brown Stink Bug) Soybean leaf on agar in 24-well microtiter plates were sprayed with aqueous test solutions prepared from 10,000 ppm DMSO stock solutions. After drying the leaf were infested with N-2 nymphs. The samples were assessed for mortality 5 days after infestation.

| melting point [°C] | Structure (SMILES) | pest or weed control at 400 ppm [1] [%] | mortality at 400 ppm [2] [%] | mortality at 400 ppm [3] [%] | pest or weed control at 400 ppm [4] [%] | pest or weed control at 400 ppm [5] [%] | pest or weed control at 400 ppm [6] [%] | pest or weed control at 12.5 ppm [7] [%] | pest or weed control at 400 ppm [8] [%] | pest or weed control at 400 ppm [9] [%] |
| --- | --- | --- | --- | --- | --- | --- | --- | --- | --- | --- |
| 257 to 259 | CCS(=O)(=O)c1cc(-c2cccc(C#N)c2)cnc1-c1nc2cc(C(F)(F)F)ncc2n1C [Compound P44] | – | – | – | – | – | – | – | – | – |
| – | CCS(=O)(=O)c1cc(-c2ccc(C#N)cc2)cnc1-c1nc2cc(C(F)(F)F)ncc2n1C [Compound P36] | > 80 | ≥ 80 | ≥ 80 | > 80 | > 80 | > 80 | ≥ 80 | > 80 | > 80 |
| 170 to 172 | CCS(=O)(=O)c1cc(-c2ccccc2)cnc1-c1nc2cc(C(F)(F)F)ncc2n1C [Compound P39] | – | – | – | – | – | – | – | – | – |
| – | CCS(=O)(=O)c1cc(-c2ccccc2C(F)(F)F)cnc1-c1nc2cc(C(F)(F)F)ncc2n1C [Compound P4] | – | ≥ 80 | – | > 80 | – | > 80 | – | – | – |
| 235 to 237 | CCS(=O)(=O)c1cc(-c2cc(Cl)c(F)c(Cl)c2)cnc1-c1nc2cc(C(F)(F)F)ncc2n1C [Compound P43] | – | – | – | – | – | – | – | – | – |
| 181 to 183 | CCS(=O)(=O)c1cc(-c2ccc(OC(F)(F)F)cc2)cnc1-c1nc2cc(C(F)(F)F)ncc2n1C [Compound P45] | – | – | – | – | – | – | – | – | – |
| – | CCS(=O)(=O)c1cc(-c2cc(F)cc(F)c2)cnc1-c1nc2cc(C(F)(F)F)ncc2n1C [Compound P7] | > 80 | – | ≥ 80 | > 80 | > 80 | > 80 | ≥ 80 | > 80 | > 80 |
| 223 to 225 | CCS(=O)(=O)c1cc(-c2ccc(F)cc2F)cnc1-c1nc2cc(C(F)(F)F)ncc2n1C [Compound P41] | – | – | – | – | – | – | – | – | – |
| – | CCS(=O)(=O)c1cc(-c2ccc(F)cc2)cnc1-c1nc2cc(C(F)(F)F)ncc2n1C [Compound P13] | > 80 | – | ≥ 80 | > 80 | > 80 | > 80 | ≥ 80 | > 80 | > 80 |
| – | CCS(=O)(=O)c1cc(-c2ccc(C(F)(F)F)cc2)cnc1-c1nc2cc(C(F)(F)F)ncc2n1C [Compound P2] | > 80 | – | – | > 80 | > 80 | > 80 | ≥ 80 | > 80 | > 80 |
| 270 to 272 | CCS(=O)(=O)c1cc(-c2cc(Cl)cc(Cl)c2)cnc1-c1nc2cc(C(F)(F)F)ncc2n1C [Compound P42] | – | – | – | – | – | – | – | – | – |
